# Source: patent publication US4192867A, “2-Deoxyfortimicin A, 4-N-alkyl and 4-N-acyl-2-deoxyfortimicin B derivatives” (Abbott Laboratories, priority 1977, dated 1980)
# Structures can show the parent of a compound that is named as a salt. Where two headings read alike, the source gives them in different places.
# What was measured:
# [1] = system: Proteus mirabilis (Fin 9); assay: Acute mouse protection test; type: in vivo, Proteus mirabilis; female, swiss albino mice; details: ip, 168 h, read-out: Effective Dose50 (ED50)
# Method: (§1) The acute mouse protection test is conducted on 10 mice with each of 5 levels of dug. Mouse mortality is used to calculate a ED50 value, i.e., dose of drug required to protect 50% of the test animals.
# (§2) The acute mouse protection test is conducted on female, swiss albino mice, 18-20 grams in weight. The mice are injected intraperitoneally with an 18 hour culture of the indicated test organism diluted sufficiently to provide the desired LD50 value. To check potency of the infection a titration of the indicated test organism is carried out in control animals. The treatment group of animals is dosed with the test fortimicin at one and five hours post-infection and observed for seven days. The ED50 values are calculated using the mortality data collected.
# [2] = system: Klebsiella pneumoniae (4508); assay: Acute mouse protection test; type: in vivo, Klebsiella pneumoniae; female, swiss albino mice; details: ip, 168 h, read-out: Effective Dose50 (ED50)
# Method: as §1, §2
# [3] = system: Escherichia coli (Juhl); assay: Acute mouse protection test; type: in vivo, Escherichia coli; female, swiss albino mice; details: ip, 168 h, read-out: Effective Dose50 (ED50)
# Method: as §1, §2
# [4] = system: Providencia 1577; assay: In vitro antibiotic activity, two-fold dilution test (Mueller-Hinton agar); type: cell-based; details: for MIC: read-out: Minimum inhibitory concentration (MIC)
# Method: (§3) The in vitro antibiotic activities are determined by a two-fold dilution test using Mueller-Hinton agar, 10 ml per Petri plate. The inoculum of approximately 1×10^5 of the indicated test organism is delivered by the Steer's replicator. The test is incubated at 37° C. for 24 hours. Fortimicin A tetrahydrochloride and fortimicin A disulfate are used as the control antibiotics. The minimum inhibitory concentrations (MIC), listed in Table I, are expressed in mcg/ml.
# [5] = system: E. coli Juhl; assay: as above; type: cell-based; details: for MIC: Escherichia coli, read-out: Minimum inhibitory concentration (MIC)
# Method: as §3
# [6] = system: Proteus mirabilis Fin. #9; assay: as above; type: cell-based; details: for MIC: read-out: Minimum inhibitory concentration (MIC)
# Method: as §3
# [7] = system: Staph. aureus Smith; assay: as above; type: cell-based; details: for MIC: Staphylococcus aureus, read-out: Minimum inhibitory concentration (MIC)
# Method: as §3
# [8] = system: Psuedo. aeruginosa 27853; assay: as above; type: cell-based
# Method: as §3
# [9] = system: Pseudo. aeruginosa KY 8516; assay: as above; type: cell-based; details: for MIC: Pseudomonas aeruginosa
# Method: as §3
# [10] = system: Kleb. pneumoniae KY 4262; assay: as above; type: cell-based; details: for MIC: Klebsiella pneumoniae
# Method: as §3
# [11] = system: Serratis marcescens 4003; assay: as above; type: cell-based
# Method: as §3
# [12] = system: Psuedo. aeruginosa 209; assay: as above; type: cell-based; details: for MIC: read-out: Minimum inhibitory concentration (MIC)
# Method: as §3
# [13] = system: Kleb. pneumoniae 10031; assay: as above; type: cell-based
# Method: as §3
# [14] = system: E. coli 76-2; assay: as above; type: cell-based
# Method: as §3
# [15] = system: Shigella sonnei 9290; assay: as above; type: cell-based; details: 37° C.; for Minimum inhibitory concentration (MIC): 24 hours
# Method: as §3
# [16] = system: Strep. faecalis 10541; assay: as above; type: cell-based; details: for MIC: read-out: Minimum inhibitory concentration (MIC)
# Method: as §3
# [17] = system: Enterobacter aerogenes 13048; assay: as above; type: cell-based; details: for MIC: read-out: Minimum inhibitory concentration (MIC)
# Method: as §3
# [18] = system: Sal. typhimurium Ed. #9; assay: as above; type: cell-based; details: for MIC: Salmonella enterica, read-out: Minimum inhibitory concentration (MIC)
# Method: as §3
# [19] = system: E. coli BL 3676 (Res); assay: as above; type: cell-based; details: for MIC: Escherichia coli, read-out: Minimum inhibitory concentration (MIC)
# Method: as §3
# [20] = system: Pseudo. aeruginosa BMH #10; assay: as above; type: cell-based; details: for MIC: Pseudomonas aeruginosa, read-out: Minimum inhibitory concentration (MIC)
# Method: as §3
# [21] = system: Proteus rettigeri U6333; assay: as above; type: cell-based
# Method: as §3
# [22] = system: Proteus vulgaris JJ; assay: as above; type: cell-based; details: for MIC: read-out: Minimum inhibitory concentration (MIC)
# Method: as §3
# [23] = system: Pseudo. aeruginosa KY 8512; assay: as above; type: cell-based; details: for MIC: Pseudomonas aeruginosa
# Method: as §3
# [24] = Providencia 1577, Mueller-Hinton agar, 37° C., 24 hours
# [25] = E. coli Juhl, Mueller-Hinton agar, 37° C., 24 hours
# [26] = Proteus mirabilis Fin. #9, Mueller-Hinton agar, 37° C., 24 hours
# [27] = Staph. aureus Smith, Mueller-Hinton agar, 37° C., 24 hours
# [28] = Psuedo. aeruginosa 209, Mueller-Hinton agar, 37° C., 24 hours
# [29] = Sal. typhimurium Ed. #9, Mueller-Hinton agar, 37° C., 24 hours
# [30] = E. coli BL 3676 (Res), Mueller-Hinton agar, 37° C., 24 hours
# [31] = Pseudo. aeruginosa BMH #10, Mueller-Hinton agar, 37° C., 24 hours
# [32] = Proteus vulgaris JJ, Mueller-Hinton agar, 37° C., 24 hours
smiles,measurement,setting,value
"COC1C(O)C(N)C(OC2OC(C(C)N)CCC2N)C(O)C1N(C)C(=O)CN (stereo not drawn) [Fortimicin A disulfate, fortimicin A disulfate]",ED50,[1]; Proteus mirabilis,7.5 mg/kg
same,ED50,[2]; Klebsiella pneumoniae,2.5 mg/kg
same,ED50,[3]; Escherichia coli,4.6 mg/kg
same,MIC,"[4]; Providencia, 1577, 24 h",3.1 µg/mL
same,MIC,[5]; 24 h,6.2 µg/mL
same,MIC,"[6]; Proteus mirabilis, 24 h",6.2 µg/mL
same,MIC,[7]; 24 h,0.78 µg/mL
same,MIC,"[8]; 24 h, read-out: Minimum inhibitory concentration (MIC), Psuedo. aeruginosa 27853, 37° C.",12.5 µg/mL
same,MIC,"[9]; KY8516, 24 h, read-out: Minimum inhibitory concentration (MIC), Pseudo. aeruginosa KY 8516, 37° C.",50 µg/mL
same,MIC,"[10]; KY4262, 24 h, read-out: Minimum inhibitory concentration (MIC), Kleb. pneumoniae KY 4262, 37° C.",6.2 µg/mL
same,MIC,"[11]; 24 h, read-out: Minimum inhibitory concentration (MIC), Serratis marcescens 4003, 37° C.",1.56 µg/mL
same,MIC,[12]; 24 h,> 100 µg/mL
same,MIC,"[13]; Klebsiella pneumoniae, 10031, 24 h, read-out: Minimum inhibitory concentration (MIC), Kleb. pneumoniae 10031, 37° C.",3.1 µg/mL
same,MIC,"[14]; Escherichia coli, 762, 24 h, read-out: Minimum inhibitory concentration (MIC), E. coli 76-2, 37° C.",6.2 µg/mL
same,Minimum inhibitory concentration (MIC),[15],6.2 µg/mL
same,MIC,"[16]; Enterococcus faecalis, 10541, 24 h",50 µg/mL
same,MIC,"[17]; Klebsiella aerogenes, 13048, 24 h",3.1 µg/mL
same,MIC,"[18]; TYPHIMURIUM, 24 h",1.56 µg/mL
same,MIC,[19]; 24 h,25 µg/mL
same,MIC,[20]; 24 h,0.78 µg/mL
same,MIC,"[21]; 24 h, read-out: Minimum inhibitory concentration (MIC), Proteus rettigeri U6333, 37° C.",12.5 µg/mL
same,MIC,"[22]; Proteus vulgaris, 24 h",6.2 µg/mL
same,MIC,"[23]; KY8512, 24 h, read-out: Minimum inhibitory concentration (MIC), Pseudo. aeruginosa KY 8512, 37° C.",12.5 µg/mL
COC1C(O)C(N)C(OC2OC(C(C)N)CCC2N)C(O)C1N(C)C(=O)CN (stereo not drawn) [Fortimicin A tetrahydrochloride],Minimum inhibitory concentration (MIC),[4]; [24],3.1 µg/mL
same,Minimum inhibitory concentration (MIC),[5]; [25],6.2 µg/mL
same,Minimum inhibitory concentration (MIC),[6]; [26],6.2 µg/mL
same,Minimum inhibitory concentration (MIC),[7]; [27],0.78 µg/mL
same,Minimum inhibitory concentration (MIC),"[8]; Psuedo. aeruginosa 27853, 37° C., 24 hours",25 µg/mL
same,Minimum inhibitory concentration (MIC),"[9]; Pseudo. aeruginosa KY 8516, 37° C., 24 hours",100 µg/mL
same,Minimum inhibitory concentration (MIC),"[10]; Kleb. pneumoniae KY 4262, 37° C., 24 hours",3.1 µg/mL
same,Minimum inhibitory concentration (MIC),"[11]; Serratis marcescens 4003, 37° C., 24 hours",3.1 µg/mL
same,Minimum inhibitory concentration (MIC),[12]; [28],> 100 µg/mL
same,Minimum inhibitory concentration (MIC),"[13]; Kleb. pneumoniae 10031, 37° C., 24 hours",1.56 µg/mL
same,Minimum inhibitory concentration (MIC),"[14]; E. coli 76-2, 37° C., 24 hours",3.1 µg/mL
same,Minimum inhibitory concentration (MIC),[15],12.5 µg/mL
same,Minimum inhibitory concentration (MIC),"[16]; Strep. faecalis 10541, Mueller-Hinton agar, 37° C., 24 hours",50 µg/mL
same,Minimum inhibitory concentration (MIC),"[17]; Enterobacter aerogenes 13048, Mueller-Hinton agar, 37° C., 24 hours",3.1 µg/mL
same,Minimum inhibitory concentration (MIC),[18]; [29],1.56 µg/mL
same,Minimum inhibitory concentration (MIC),[19]; [30],25 µg/mL
same,Minimum inhibitory concentration (MIC),[20]; [31],0.78 µg/mL
same,Minimum inhibitory concentration (MIC),"[21]; Proteus rettigeri U6333, 37° C., 24 hours",25 µg/mL
same,Minimum inhibitory concentration (MIC),[22]; [32],6.2 µg/mL
same,Minimum inhibitory concentration (MIC),"[23]; Pseudo. aeruginosa KY 8512, 37° C., 24 hours",25 µg/mL
"COC1CC(N)C(OC2OC(C(C)N)CCC2N)C(O)C1N(C)C(=O)CN (stereo not drawn) [2-deoxyfortimicin A tetrahydrochloride, 2-Deoxyfortimicin A Tetrahydrochloride]",ED50,"[1]; Proteus mirabilis (Fin 9) infected intraperitoneally, dosed one and five hours post-infection, observed seven days",4.7 mg/kg
same,ED50,"[2]; Klebsiella pneumoniae (4508) infected intraperitoneally, dosed one and five hours post-infection, observed seven days",1.5 mg/kg
same,ED50,"[3]; Escherichia coli (Juhl) infected intraperitoneally, dosed one and five hours post-infection, observed seven days",4.7 mg/kg
same,MIC,[4]; [24],3.1 µg/mL
same,MIC,[5]; [25],6.2 µg/mL
same,MIC,[6]; [26],6.2 µg/mL
same,MIC,[7]; [27],0.78 µg/mL
same,MIC,"[8]; Psuedo. aeruginosa 27853, 37° C., 24 hours, read-out: Minimum inhibitory concentration (MIC)",12.5 µg/mL
same,MIC,"[9]; KY8516, Pseudo. aeruginosa KY 8516, 37° C., 24 hours, read-out: Minimum inhibitory concentration (MIC)",50 µg/mL
same,MIC,"[10]; KY4262, Kleb. pneumoniae KY 4262, 37° C., 24 hours, read-out: Minimum inhibitory concentration (MIC)",6.2 µg/mL
same,MIC,"[11]; Serratis marcescens 4003, 37° C., 24 hours, read-out: Minimum inhibitory concentration (MIC)",3.1 µg/mL
same,MIC,[12]; [28],> 100 µg/mL
same,MIC,"[13]; Klebsiella pneumoniae, Kleb. pneumoniae 10031, 37° C., 24 hours, read-out: Minimum inhibitory concentration (MIC)",1.56 µg/mL
same,MIC,"[14]; Escherichia coli, 762, E. coli 76-2, 37° C., 24 hours, read-out: Minimum inhibitory concentration (MIC)",3.1 µg/mL
same,MIC,"[15]; Shigella sonnei, 9290, 24 h, read-out: Minimum inhibitory concentration (MIC)",6.2 µg/mL
same,MIC,"[16]; Enterococcus faecalis, Strep. faecalis 10541, Mueller-Hinton agar, 37° C., 24 hours",50 µg/mL
same,MIC,"[17]; Klebsiella aerogenes, Enterobacter aerogenes 13048, Mueller-Hinton agar, 37° C., 24 hours",3.1 µg/mL
same,MIC,[18]; [29],1.56 µg/mL
same,MIC,[19]; [30],25 µg/mL
same,MIC,[20]; [31],0.78 µg/mL
same,MIC,"[21]; Proteus rettigeri U6333, 37° C., 24 hours, read-out: Minimum inhibitory concentration (MIC)",25 µg/mL
same,MIC,[22]; [32],3.1 µg/mL
same,MIC,"[23]; KY8512, Pseudo. aeruginosa KY 8512, 37° C., 24 hours, read-out: Minimum inhibitory concentration (MIC)",12.5 µg/mL
